pIC50: −log10 of the molar value. Where two headings read alike, the source gives them in different places. Square brackets hold non-standard residues; d marks the D form. Ends that are not written are not given here. Peptide text beside a SMILES is read from it.
Columns and labels:
DRB1*0701 (DR7) = DRB1*0701 (DR7) (Homo sapiens, UniProt P01903+P01911, A100R/A102G/A103Q/D57E/D86V/E43K/F76Y/K127E/L162R/M171V/P40G/Q125H/Q99D/R33Q/R42Y/R54Q/S133A/S66F/T210M/V115G/Y107V/Y59L/Y89S); experiment: Class II peptide-binding assay, DR7;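 also: unlabeled peptides compete with an iodinated probe peptide for binding to affinity-purified HLA-DR at neutral pH, DR amount titered to bind a small tracer fraction, IC50 approximating Kd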
DRB1*0401 (DR4w4) = target: T1, DRB1*0401 (DR4w4) (Homo sapiens, UniProt P01903+P01911, A100K/A169T/F76Y/I96L/K127E/L162R/M171V/N62H/P40V/Q125Y/R42H/S133A/S149N/S66Y/V115G/V209L/W38E); experiment: Class II peptide-binding assay, DR4w4;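 also: unlabeled test peptides compete with a radiolabeled probe peptide for binding to affinity-purified HLA-DR, with DR amount titrated to capture a small fraction of label, IC50 approximating Kd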
T1 construct: used as sources of human HLA class II molecules; endogenous in cells; host or cells: PREISS (EBV-transformed homozygous B cell line)

DRB1*0101 (DR1) = target: T2, DRB1*0101 (DR1) (Homo sapiens, UniProt P01903+P01911, A100R/D57E/F55L/F60I/F76Y/I96L/L162R/M171V/P40L/Q125E/R42F/V115G/Y59C); experiment: Class II peptide-binding assay, DR1;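 also: competition assay: unlabeled test peptides inhibit binding of a radiolabeled probe peptide to purified DR, with half-maximal inhibition taken as an approximate dissociation constant Kd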
T2 construct: used as sources of human HLA class II molecules; endogenous in cells; host or cells: LG2 (EBV-transformed homozygous B cell line)

DRB5*0101 (DR2w2a) = target: T3, DRB5*0101 (DR2w2a) (Homo sapiens, UniProt P01903+Q30154); experiment: Class II peptide-binding assay, DR2w2a (DR2w2B2);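 also: competitive binding assay: unlabeled peptide inhibiting binding of a radiolabeled probe peptide to purified DR molecules at pH 7.0, IC50 approximating Kd, lower means stronger binding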
T3 construct: used as sources of human HLA class II molecules; endogenous in cells; host or cells: GM3107 (EBV-transformed homozygous B cell line)

DRB10404 (DR4w14) = target: T4, DRB10404 (DR4w14) (Homo sapiens, UniProt P01903+P01911, A100R/A169T/F76Y/I96L/K127E/L162R/M171V/N62H/P40V/Q125Y/R42H/S133A/S149N/S66Y/V209L/W38E); experiment: Class II peptide-binding assay, DR4w14;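 also: unlabeled peptides compete with a radiolabeled probe for binding to affinity-purified HLA-DR, neutral pH, class II amount titrated to bind a small fraction of label, IC50 approximates Kd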
T4 construct: used as sources of human HLA class II molecules; endogenous in cells; host or cells: BIN40 (EBV-transformed homozygous B cell line)

DRB1*1101 (DR5w11) = target: T5, DRB1*1101 (DR5w11) (Homo sapiens, UniProt P01903+P01911, A100R/A169T/A87E/I96F/K41T/L162R/M171V/P40S/Q125H/Q178H/Q39Y/Q99D/R42S/S66Y/T262R/V115G/W38E); experiment: Class II peptide-binding assay, DR5w11;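 also: competition by unlabeled test peptide against iodinated probe peptide binding to affinity-purified HLA-DR, class II amount titrated beforehand, half-maximal inhibitory concentration read as approximate Kd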
T5 construct: used as sources of human HLA class II molecules; endogenous in cells; host or cells: SWEIG (EBV-transformed homozygous B cell line)

[1] = read-out: DR7 nM (In IC50 Format), purified HLA DR7
[2] = read-out: DR4w4 nM (In IC50 Format), purified HLA DR4w4
[3] = read-out: DR1 nM (In IC50 Format), purified HLA DR1
[4] = read-out: DR2w2B2 nM (In IC50 Format), purified HLA DR2w2β2
[5] = read-out: DR4w14 nM (In IC50 Format), purified HLA DR4w14
[6] = read-out: DR5w11 nM (In IC50 Format), purified HLA DR5w11
[7] = read-out: DR7 nM, Table VIII, In IC50 Format
[8] = read-out: DR4w4 nM, Table VIII, In IC50 Format
[9] = read-out: DR1 nM, Table VIII, In IC50 Format
[10] = read-out: DR2w2B2 nM, Table VIII, In IC50 Format
[11] = read-out: DR4w14 nM, Table VIII, In IC50 Format
[12] = read-out: DR5w11 nM, Table VIII, In IC50 Format

T5 sequence (P01903 26-254, other chains not shown): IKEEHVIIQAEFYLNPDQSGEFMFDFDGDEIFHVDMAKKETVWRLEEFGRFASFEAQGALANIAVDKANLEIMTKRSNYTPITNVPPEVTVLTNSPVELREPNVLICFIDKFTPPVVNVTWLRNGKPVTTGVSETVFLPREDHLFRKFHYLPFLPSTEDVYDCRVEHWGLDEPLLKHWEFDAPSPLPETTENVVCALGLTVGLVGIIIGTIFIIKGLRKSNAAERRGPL

Molecule | pIC50 (DRB1*0701 (DR7); [1]) | pIC50 (DRB1*0401 (DR4w4); [2]) | pIC50 (DRB1*0101 (DR1); [3]) | pIC50 (DRB5*0101 (DR2w2a); [4]) | pIC50 (DRB10404 (DR4w14); [5]) | pIC50 (DRB1*1101 (DR5w11); [6]) | other results
CC(C)C[C@H](NC(=O)[C@@H](NC(=O)[C@@H](NC(=O)[C@H](CCC(N)=O)NC(=O)[C@H](CCCNC(=N)N)NC(=O)[C@H](CCC(N)=O)NC(=O)[C@H](Cc1ccccc1)NC(=O)[C@H](C)NC(=O)[C@H](C)NC(=O)[C@H](N)Cc1ccc(O)cc1)[C@@H](C)O)[C@@H](C)O)C(=O)N[C@@H](CCCCN)C(=O)N[C@@H](C)C(=O)N[C@@H](C)C(=O)N[C@H](C)C(N)=O [Peptide 781.16] (H-[dY]AAFQRQTTLKAA[dA]-NH2) | 5.56 | 8.42 | 8.52 | 6.81 | 8.15 | 8.00 | –
YARFQSQTTLKAAT-NH2 [Peptide 717.49] | 5.38 | 8.18 | 8.68 | 6.93 | 8.15 | 8.20 | –
YARFQSQTTLKAKT-NH2 [Peptide 717.02] | 5.56 | 8.43 | 8.54 | 6.90 | 7.73 | 7.72 | –
ARRLKAIYARRLK [Peptide 640.04] | – | – | – | – | – | – | pIC50 (DRB1*0701 (DR7); read-out: In IC50 Format DR7, Table VIII): 7.53; pIC50 (DRB1*0401 (DR4w4); read-out: In IC50 Format DR4w4, Table VIII): < 4.65; pIC50 (DRB1*0101 (DR1); read-out: In IC50 Format DR1, Table VIII): 8.44; pIC50 (DRB5*0101 (DR2w2a); read-out: In IC50 Format DR2w2β2, Table VIII): 8.06; pIC50 (DRB10404 (DR4w14); read-out: In IC50 Format DR4w14, Table VIII): 6.18; pIC50 (DRB1*1101 (DR5w11); read-out: In IC50 Format DR5w11, Table VIII): 6.18
YARAQSQTTLKAKT-NH2 [Peptide 717.29] | 5.45 | 7.52 | 6.26 | 5.74 | 7.38 | 4.70 | –
C[C@H](NC(=O)[C@H](C)NC(=O)[C@H](Cc1ccccc1)NC(=O)[C@H](C)NC(=O)[C@@H](C)N)C(=O)N[C@@H](C)C(=O)N[C@@H](C)C(=O)N1CCC[C@H]1C(=O)N[C@@H](CCCCN)C(=O)N[C@@H](C)C(=O)N[C@@H](C)C(=O)N[C@@H](C)C(=O)N[C@H](C)C(N)=O [Peptide 828.05] (H-[dA]AFAAAAPKAAA[dA]-NH2) | – | – | – | – | – | – | pIC50 (DRB1*0701 (DR7); [7]): 5.88; pIC50 (DRB1*0401 (DR4w4); [8]): 6.81; pIC50 (DRB1*0101 (DR1); [9]): 8.72; pIC50 (DRB5*0101 (DR2w2a); [10]): 7.81; pIC50 (DRB10404 (DR4w14); [11]): 5.20; pIC50 (DRB1*1101 (DR5w11); [12]): 6.98
YARFQSQTTAKAKT-NH2 [Peptide 717.51] | 5.20 | 8.21 | 8.48 | 7.18 | 7.88 | 7.41 | –
YARFQSNTTLKAKT-NH2 [Peptide 717.47] | 5.38 | 8.42 | 7.38 | 6.35 | 7.83 | 7.74 | –
YARFQSQATLKAKT-NH2 [Peptide 717.53] | 5.45 | 8.04 | 8.70 | 6.78 | 7.97 | 7.70 | –
YARFNSQTTLKAKT-NH2 [Peptide 717.44] | 5.30 | 8.38 | 8.30 | 7.10 | 8.13 | 7.48 | –
YARFQAQTTLKAKT-NH2 [Peptide 717.55] | 5.30 | 8.35 | 8.62 | 7.04 | 8.37 | 7.95 | –
KYLATASTMDHARHGFLP [Peptide 765.02] | 6.80 | 7.00 | 4.30 | 5.00 | 7.06 | 5.30 | –
C[C@H](NC(=O)[C@H](C)NC(=O)[C@H](C)NC(=O)[C@H](Cc1ccc(O)cc1)NC(=O)[C@H](C)NC(=O)[C@@H](C)N)C(=O)N[C@@H](C)C(=O)N[C@H](C(=O)N[C@@H](C)C(=O)N[C@@H](CCCCN)C(=O)N[C@@H](C)C(=O)N[C@@H](C)C(=O)N[C@H](C)C(N)=O)[C@@H](C)O [Peptide 762.02] (H-[dA]AYAAAATAKAA[dA]-NH2) | 6.16 | 8.70 | 8.77 | 6.98 | 5.85 | 7.59 | –
CPIAIMSALAMVYLGAKDS [Peptide 705.04] | 5.96 | 6.05 | 7.27 | 6.39 | 5.94 | 5.18 | –
C[C@H](NC(=O)[C@H](N)Cc1ccc(O)cc1)C(=O)N[C@@H](C)C(=O)N[C@@H](Cc1ccccc1)C(=O)N[C@@H](C)C(=O)N[C@@H](C)C(=O)N[C@@H](C)C(=O)N[C@@H](C)C(=O)N1CCC[C@H]1C(=O)N[C@@H](CCCCN)C(=O)N[C@@H](C)C(=O)N[C@@H](C)C(=O)N[C@@H](C)C(=O)N[C@H](C)C(N)=O [Peptide 828.06] (H-[dY]AAFAAAAPKAAA[dA]-NH2) | – | – | – | – | – | – | pIC50 (DRB1*0701 (DR7); [7]): 5.72; pIC50 (DRB1*0401 (DR4w4); [8]): 6.67; pIC50 (DRB1*0101 (DR1); [9]): 8.70; pIC50 (DRB5*0101 (DR2w2a); [10]): 7.72; pIC50 (DRB10404 (DR4w14); [11]): 5.00; pIC50 (DRB1*1101 (DR5w11); [12]): 6.63
YARFQSQTTLKSKT-NH2 [Peptide 717.23] | 5.08 | 8.55 | 6.53 | 6.67 | 7.66 | 7.60 | –
INSWVESQTNGIIRNVLQPS [Peptide 732.01] | 6.57 | 6.78 | 6.41 | 5.88 | 6.57 | 5.18 | –
C[C@H](NC(=O)[C@H](N)Cc1ccc(O)cc1)C(=O)N[C@@H](C)C(=O)N[C@@H](Cc1ccccc1)C(=O)N[C@@H](C)C(=O)N[C@@H](C)C(=O)N[C@@H](C)C(=O)N[C@@H](C)C(=O)N[C@H](C(=O)N[C@@H](CCCCN)C(=O)N[C@@H](C)C(=O)N[C@@H](C)C(=O)N[C@@H](C)C(=O)N[C@H](C)C(N)=O)[C@@H](C)O [Peptide 828.10] (H-[dY]AAFAAAATKAAA[dA]-NH2) | – | – | – | – | – | – | pIC50 (DRB1*0701 (DR7); [7]): 5.90; pIC50 (DRB1*0401 (DR4w4); [8]): 8.47; pIC50 (DRB1*0101 (DR1); [9]): 8.72; pIC50 (DRB5*0101 (DR2w2a); [10]): 7.70; pIC50 (DRB10404 (DR4w14); [11]): 6.95; pIC50 (DRB1*1101 (DR5w11); [12]): 7.65
CC(C)C[C@H](NC(=O)[C@H](CCCCN)NC(=O)[C@H](CC(C)C)NC(=O)[C@@H](NC(=O)[C@H](CC(N)=O)NC(=O)[C@H](CCC(N)=O)NC(=O)[C@H](CCCCN)NC(=O)[C@@H](NC(=O)[C@H](Cc1ccc(O)cc1)NC(=O)[C@H](CCCCN)NC(=O)[C@@H]1CCCN1C(=O)[C@@H](N)CS)C(C)C)[C@@H](C)O)C(=O)N[C@@H](C)C(=O)N[C@H](C(=O)NCC(=O)O)[C@@H](C)O [Peptide 852.01] | – | – | – | – | – | – | pIC50 (DRB1*0701 (DR7); [7]): 7.18; pIC50 (DRB1*0401 (DR4w4); [8]): 7.52; pIC50 (DRB1*0101 (DR1); [9]): 7.50; pIC50 (DRB5*0101 (DR2w2a); [10]): 8.54; pIC50 (DRB10404 (DR4w14); [11]): 5.15; pIC50 (DRB1*1101 (DR5w11); [12]): 7.41
YARFQSQTTLKAKT [Peptide 717.67] | 5.86 | 8.22 | 8.44 | 6.78 | 7.95 | 8.13 | –
Ac-AFAAAATLKA-NH2 [Peptide 770.02] | 6.49 | 7.67 | 7.45 | 6.88 | 6.99 | 6.98 | –
YIAFLKQATAKLAT [Peptide 723.01] | 7.81 | 7.78 | 8.31 | 7.16 | 6.13 | 7.52 | –
AAFAAAAAQRLFA-NH2 [Peptide 761.01] | 8.12 | 7.52 | 8.64 | 8.92 | 5.48 | 6.26 | –
AFAAAATLKA-NH2 [Peptide 770.01] | 6.16 | 7.63 | 7.11 | 7.37 | 6.45 | 6.60 | –
YARFQSQTTLKART-NH2 [Peptide 717.25] | 5.38 | 8.92 | 8.35 | 7.19 | 7.97 | 7.88 | –
YARFQSQTTLKAKE-NH2 [Peptide 717.28] | 5.30 | 7.58 | 8.35 | 7.02 | 7.89 | 7.78 | –
YAKFQSQTTLKAKT-NH2 [Peptide 717.40] | 5.45 | 8.31 | 8.06 | 6.78 | 7.84 | 8.06 | –

From patent EP1388586A2, “Identification of broadly reactive DR restricted epitopes” (priority 1998, dated 1999)
